Experimental data: patent publication US11723929B2, “Methods of improving cell-based therapy” (THE REGENTS OF THE UNIVERSITY OF CALIFORNIA, priority 2017, dated 2023)

Legend:
Exp. logP (Table 3) = format: physicochemical
[1] = PTZ Induced Seizure Model; Example 52 and FIG. 7 of WO 2015/148954; cited from earlier work
sEH [2] = target: T1, sEH (Homo sapiens (Human), UniProt P34913); test: Testing as inhibitor of sEH; format: biochemical
From the text: Derivatives of urea are transition state mimetics that form a group of sEH inhibitors. […] Any particular urea derivative or other compound can be easily tested for its ability to inhibit sEH by standard assays, such as those discussed herein. The production and testing of urea and carbamate derivatives as sEH inhibitors is set forth in detail in, for example, Morisseau et al., Proc Natl Acad Sci (USA) 96:8849-8854 (1999).
(§1) Both the 1- and the 2-adamantyl ureas have been tested and have about the same high activity as an inhibitor of sEH.
One category of these inhibitors comprises inhibitors that mimic the substrate for the enzyme. The lipid alkoxides (e.g., the 9-methoxide of stearic acid) are an exemplar of this group of inhibitors.

Metabolic stability = format: in vitro ADME
From the text: as §1

[3] = tested on: murine myocardial infarction (MI) model; test: Flow cytometric quantification of GFP+ hiPSC-CMs in the post MI model; conditions: NSG mice post MI with transplanted hiPSC-CMs, with or without TPPU; after 4 weeks
[4] = tested on: murine myocardial infarction (MI) model; test: Echocardiography, left ventricular fractional shortening after MI; format: in vivo, mouse
Description: The animals were followed for a period of three weeks at which time repeat echocardiograms were performed.
An increase in hiPSC-CMs engraftment translated into a significant improvement in cardiac function.

[5] = cited from earlier work
PDE4 = PDE4 inhibition by cAMP increase in live HEK cells transfected with a PKA biosensor; format: cell-based, human; conditions: relative to Rolipram at 1 μM
[6] = tested on: murine myocardial infarction (MI) model; test: In vivo bioluminescence imaging of transplanted hiPSC-CMs in the post MI model; conditions: NSG mice post MI with transplanted hiPSC-CMs, with or without TPPU 15 mg/L in drinking water; BLI at 3 and 4 weeks
COX-1 = test: Inhibitory activity against COX-1 (Table 4); format: biochemical; design: dose or concentration left out as unconfirmed
sEH [7] = target: T1, sEH; test: Inhibitory activity against sEH (Table 4); conditions: read-out: sEH

Structure (SMILES)	COX-1 (% inhibition) (COX-1)	IC50 (sEH [7]) [nM]	other results
O=C(Nc1ccc(C(F)(F)F)cc1)NC1CCN(C(=O)C2(C(F)(F)F)CC2)CC1			logP (Exp. logP (Table 3)): 4.63
O=C(Nc1ccc(OC(F)(F)F)c(F)c1)NC1CCN(C(=O)C2CCOCC2)CC1 [1-(3-fluoro-4-(trifluoromethoxy)phenyl)-3-(1-(tetrahydro-2H-pyran-4-carbo-nyl)piperidin-4-yl)urea]			crossing of the blood-brain barrier [1]: cross the blood-brain barrier
CCCCCCCCCCCCNC(=O)NC12CC3CC(CC(C3)C1)C2 [ADU, N-Adamantyl-N′-dodecyl urea]			activity as inhibitor of sEH (sEH [2]): particularly high activity; metabolic stability (Metabolic stability): metabolically stable
CCC(=O)N1CCC(NC(=O)Nc2ccc(OC(F)(F)F)cc2)CC1 [TPPU]			number of GFP+ hiPSC-CMs by flow cytometry [3]: 9.9±0.5%; improvement of FS with both sEHI and cells ([4]; MI+hiPSC-CM+TPPU, highest compared to other treatment groups): 40%; left ventricular fractional shortening (FS), MI+hiPSC-CM+TPPU group ([4]; after three weeks of TPPU treatment (before treatment 44±6%)): 61±2%; fractional shortening (FS), MI+TPPU group ([4]; post treatment): 55±0.7%; fractional shortening (FS), MI+TPPU+Vehicle (PBS injection) group ([4]; post treatment): 51±2%; half-life ([5]; compared with many previous compounds (ref. 50)): relatively longer half-life; area under the curve ([5]; in vivo): high area under the curve values; cAMP increase (% of Rolipram) (PDE4): 40 ± 10 % of Rolipram; BLI signal of transplanted GFP+ hiPSC-CMs [6]: 7.4×10^6±1.7×10^6 photons/s/cm^2/sr
CS(=O)(=O)c1ccc(-n2nc(CNC(=O)NC34CC5CC(CC(C5)C3)C4)cc2-c2ccccc2)cc1 [compound 1860, 1-Adamantan-1-yl-3-[1-(4-methanesulfonyl-phenyl)-5-phenyl-1H-pyrazol-3-ylmethyl]-urea]	12.7	25 ± 1	
CS(=O)(=O)c1ccc(-n2nc(CNC(=O)Nc3cccc(C(F)(F)F)c3)cc2-c2ccccc2)cc1 [compound 1861, 1-[1-(4-Methanesulfonyl-phenyl)-5-phenyl-1H-pyrazol-3-ylmethyl]-3-(3-trifluoromethyl-phenyl)-urea]	7.8	72 ± 8	
CS(=O)(=O)c1ccc(-n2nc(CCCNC(=O)Nc3cccc(C(F)(F)F)c3)cc2-c2ccccc2)cc1 [compound 1862, 1-{3-[1-(4-Methanesulfonyl-phenyl)-5-phenyl-1H-pyrazol-3-yl]-propyl}-3-(3-trifluoromethyl-phenyl)-urea]	6.4	3.4 ± 0.2	
CC(C)(C)c1cc(CNC(=O)Nc2cccc(C(F)(F)F)c2)nn1-c1ccc(S(C)(=O)=O)cc1 [compound 2106, 1-[5-tert-Butyl-1-(4-methanesulfonyl-phenyl)-1H-pyrazol-3-ylmethyl]-3-(3-trifluoromethyl-phenyl)-urea]	2.4	32 ± 3	
NS(=O)(=O)c1ccc(-n2nc(CNC(=O)Nc3cccc(C(F)(F)F)c3)cc2-c2ccccc2)cc1 [compound 2107, 4-{5-Phenyl-3-[3-(3-trifluoromethyl-phenyl)-ureidomethyl]-pyrazol-1-yl}-benzenesulfonamide]	16.9	84 ± 6	
NS(=O)(=O)c1ccc(-n2nc(NC(=O)Nc3cccc(C(F)(F)F)c3)cc2-c2ccccc2)cc1 [compound 2121, 4-{5-Phenyl-3-[3-(3-trifluoromethyl-phenyl)-ureido]-pyrazol-1-yl}-benzenesulfonamide]	33.9	88 ± 5	
Cc1ccc(-c2cc(CCCNC(=O)Nc3cccc(C(F)(F)F)c3)nn2-c2ccc(S(N)(=O)=O)cc2)cc1 [compound 2152, 4-(5-p-Tolyl-3-{3-[3-(3-trifluoromethyl-phenyl)-ureido]-propyl}-pyrazol-1-yl)-benzenesulfonamide]	12.1	10 ± 1	
NS(=O)(=O)c1ccc(-n2nc(CCCNC(=O)Nc3ccccc3)cc2-c2ccccc2)cc1 [compound 2245, 4-{5-Phenyl-3-[3-(3-phenyl-ureido)-propyl]-pyrazol-1-yl}-benzenesulfonamide]	15.8	0.8 ± 0.1	
NS(=O)(=O)c1ccc(-n2nc(CCCNC(=O)Nc3cccc(C(F)(F)F)c3)cc2-c2ccccc2)cc1 [compound 2246, 4-(5-Phenyl-3-{3-[3-(3-trifluoromethyl-phenyl)-ureido]-propyl}-pyrazol-1-yl)-benzenesulfonamide]	27.2	4.1 ± 0.4	
NS(=O)(=O)c1ccc(-n2nc(CCCNC(=O)NC3CCCCCC3)cc2-c2ccccc2)cc1 [compound 2247, 4-{3-[3-(3-Cycloheptyl-ureido)-propyl]-5-phenyl-pyrazol-1-yl}-benzenesulfonamide]	10.2	0.5 ± 0.1	
NS(=O)(=O)c1ccc(-n2nc(CCNC(=O)Nc3cccc(C(F)(F)F)c3)cc2-c2ccccc2)cc1 [compound 2313, 4-(5-Phenyl-3-{2-[3-(3-trifluoromethyl-phenyl)-ureido]-ethyl}-pyrazol-1-yl)-benzenesulfonamide]	22.0	26 ± 3	
CS(=O)(=O)c1ccc(-n2nc(CNC(=O)NC3CCCCCC3)cc2-c2ccccc2)cc1 [compound 2321, 1-Cycloheptyl-3-[1-(4-methanesulfonyl-phenyl)-5-phenyl-1H-pyrazol-3-ylmethyl]-urea]	3.4	2.6 ± 0.3	
CS(=O)(=O)c1ccc(-n2nc(CNC(=O)Nc3ccccc3)cc2-c2ccccc2)cc1 [compound 2322, 1-[1-(4-Methanesulfonyl-phenyl)-5-phenyl-1H-pyrazol-3-ylmethyl]-3-phenyl-urea]		47 ± 4	
CS(=O)(=O)c1ccc(-n2nc(CNC(=O)Nc3ccc(OC(F)(F)F)cc3)cc2-c2ccccc2)cc1 [compound 2323, 1-[1-(4-Methanesulfonyl-phenyl)-5-phenyl-1H-pyrazol-3-ylmethyl]-3-(4-trifluoromethoxy-phenyl)-urea]	10.4	6 ± 0.5	
CS(=O)(=O)c1ccc(-n2nc(CNC(=O)Nc3ccc(C(F)(F)F)cc3)cc2-c2ccccc2)cc1 [compound 2324, 1-[1-(4-Methanesulfonyl-phenyl)-5-phenyl-1H-pyrazol-3-ylmethyl]-3-(4-trifluoromethyl-phenyl)-urea]	10.7	110 ± 5	
CC(C)c1cccc(C(C)C)c1NC(=O)NCCCc1cc(-c2ccccc2)n(-c2ccc(S(N)(=O)=O)cc2)n1 [compound 2325, 4-(3-{3-[3-(2,6-Diisopropyl-phenyl)-ureido]-propyl}-5-phenyl-pyrazol-1-yl)-benzenesulfonamide]	6.2	1550 ± 70	
NS(=O)(=O)c1ccc(-n2nc(CCCNC(=O)NC34CC5CC(CC(C5)C3)C4)cc2-c2ccccc2)cc1 [compound 2326, 4-{3-[3-(3-Adamantan-1-yl-ureido)-propyl]-5-phenyl-pyrazol-1-yl}-benzenesulfonamide]	6.7	0.5 ± 0.1	
NS(=O)(=O)c1ccc(-n2nc(CCCNC(=O)Nc3ccc(Cl)cc3)cc2-c2ccccc2)cc1 [compound 2327, 4-(3-{3-[3-(4-Chloro-phenyl)-ureido]-propyl}-5-phenyl-pyrazol-1-yl)-benzenesulfonamide]	15.2	0.8 ± 0.1	
NS(=O)(=O)c1ccc(-n2nc(CCCNC(=O)Nc3ccc(C(F)(F)F)cc3)cc2-c2ccccc2)cc1 [compound 2328, 4-(5-Phenyl-3-{3-[3-(4-trifluoromethyl-phenyl)-ureido]-propyl}-pyrazol-1-yl)-benzenesulfonamide]	22.7	0.9 ± 0.1	
NS(=O)(=O)c1ccc(-n2nc(CCCNC(=O)Nc3ccc(OC(F)(F)F)cc3)cc2-c2ccccc2)cc1 [compound 2329, 4-(5-Phenyl-3-{3-[3-(4-trifluoromethoxy-phenyl)-ureido]-propyl}-pyrazol-1-yl)-benzenesulfonamide]	13.8	0.5 ± 0.1	
